Measurements from patent publication US5342845A, “Indole derivatives and drugs” (priority 1990, dated 1994).
Structures can show the parent of a compound that is named as a salt.

Columns and labels:
[1] = test system: mice; experiment: Acute toxicity; type: in vivo, male mice; conditions: 48 hours
Source text: Six-week-old male mice were used.

[2] = test system: Bezold-Jarisch reflex (serotonin-induced decrease in heart rate); experiment: Inhibition of serotonin-induced Bezold-Jarisch reflex; type: in vivo, male rats; conditions: Rattus norvegicus, iv, 5 min; i.v. 5 min before 0.1 mg/kg i.v. serotonin; dose inhibiting response by 50%
Source text: 1. Inhibition of Bezold-Jarisch reflex
The effect of the test compound on the serotonin-induced decrease in heart rate (Bezold-Jarisch reflex) was investigated in male rats, 6-8 weeks of age, with reference to the method of Richardson, et al. (Richardson, B. P., Engel, G., Donatsch, P. and Stadle, P. A.: Identification of serotonin-receptor subtypes and their specific blockade by a new class of drugs; Nature 316, 126-131 (1985)). With the animal immobilized in dorsal position under urethane anesthesia, 0.1 mg/kg of serotonin was administered intravenously before and 5 min after intravenous administration of the test compound and changes in heart rate were recorded. […] The ED50 value was calculated by the least square method.

[3] = test system: cisplatin-induced vomiting; experiment: Inhibition of cisplatin-induced vomiting; type: in vivo, beagle dogs; conditions: for a/b (Number of animals which vomited/number of animals used): 5 min before cisplatin 2 mg/kg i.v., 6 h observation; for Vomiting frequency: control 12.2 ± 0.8; for Latency to vomiting: control 118.9 ± 5.6
Protocol: 2. Inhibition of cisplatin-induced vomiting
The experiment was performed with reference to the method of Cohen et al. (Cohen, M. L., Bloomquist, W., Gidda, J. S. and Lacefie, W: Comparison of the 5-HT3 receptor antagonist properties of ICS-205-930, GR38032F and Zacopride; J. Pharmacol. Exp. Ther. 248, 197-201 (1989)). In this experiment, beagle dogs of either sex, weighing 8-15 kg, were used. […] The test compounds were administered intravenously 5 minutes before the administration of cisplatin.

[4] = test system: scopolamine-induced deficits of learning and memory; experiment: Ameliorative effect on scopolamine-induced deficits of learning and memory (step through-type passive avoidance); type: in vivo, rats
Protocol: 3. Ameliorative effect on scopolamine-induced deficits of learning and memory
The experiment was performed in groups of 10 rats. In the intraperitoneal administration study, the test compound was dissolved in physiological saline and administered, and 15 minutes later 0.3 mg/kg of scopolamine was administered intraperitoneally. In the oral administration study, the test compound was suspended in 0.5% methylcellulose (MC) solution and administered and 30 minutes later 0.3 mg/kg of scopolamine was administered intraperitoneally. Thirty minutes after scopolamine administration, training sessions for a step through-type passive avoidance learning task was carried out and 24 hours after this training, trial sessions were started.
The latency to step-through in the trial sessions was determined up to a maximum of 300 seconds and the result was regarded as a learning result. For the test of significant differences from the control group, the Kruscall-Wallis test and the Fisher test were used. The control group received a physiological saline or MC solution.

[5] = target: T1, muscarine M1 receptors (Rattus norvegicus, UniProt P08482); experiment: Muscarine M1 receptor binding ([^3 H]pirenzepine displacement); conditions: 1 nM [^3 H]pirenzepine, rat brain membranes, pH 7.4, 25° C., 60 min
T1 construct: receptor membrane prepared from the rat brain; from tissue; host or cells: rat brain (receptor membrane)
T1 sequence (P08482 1-460): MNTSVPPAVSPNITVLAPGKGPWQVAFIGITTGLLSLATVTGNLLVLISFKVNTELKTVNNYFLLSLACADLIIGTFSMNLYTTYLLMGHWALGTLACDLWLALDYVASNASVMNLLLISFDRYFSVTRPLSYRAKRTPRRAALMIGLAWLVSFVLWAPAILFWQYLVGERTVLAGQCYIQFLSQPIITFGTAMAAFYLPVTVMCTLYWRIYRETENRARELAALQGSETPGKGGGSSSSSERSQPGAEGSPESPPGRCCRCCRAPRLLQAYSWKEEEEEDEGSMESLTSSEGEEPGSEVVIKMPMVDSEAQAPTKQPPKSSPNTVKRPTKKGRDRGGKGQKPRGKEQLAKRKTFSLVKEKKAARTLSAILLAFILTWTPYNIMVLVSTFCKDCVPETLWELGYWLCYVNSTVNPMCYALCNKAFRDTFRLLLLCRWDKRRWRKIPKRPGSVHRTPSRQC
Protocol: 4. Effect on muscarine M1 receptors
The muscarine M1 receptor binding assay was carried out according to the method of Watson and Yamamura [Life Sci. 32; 3001-3011 (1983)]. Thus, receptor membrane prepared from the rat brain were incubated with 1 nM [^3 H]pirenzepine in 10 mM Na/K phosphate buffer (pH 7.4) at 25° C. for 60 minutes. As a displacer, 1μM atropine was used.

[6] = test system: emesis associated with the administration of anticancer drugs; conditions: background art; cited from earlier work
[7] = oral, 0.03 μg/kg, control 110.1 ± 41.6 (Example 11), 111.9 ± 41.4 (Example 12)
[8] = oral, 0.1 μg/kg, control 110.1 ± 41.6 (Example 11), 111.9 ± 41.4 (Example 12)
[9] = oral, 0.3 μg/kg, control 110.1 ± 41.6 (Example 11), 111.9 ± 41.4 (Example 12)
[10] = oral, 1 μg/kg, control 110.1 ± 41.6 (Example 11), 111.9 ± 41.4 (Example 12)

For `COc1ccc(-c2c(C(=O)N[C@@H]3CN4CCC3CC4)c3ccccc3n2C)cc1` [Example 2, (S)-(-)-N-(1-Azabicyclo[2,2,2]octo-3-yl)-2-(4-methoxyphenyl)-1-methylindole-3-carboxamide hydrochloride], the “Number of dead animals/number of animals used” value ([1]; 30 mg/kg intraperitoneal) was 0/4, the “Number of dead animals/number of animals used” value ([1]; 50 mg/kg intraperitoneal) was 0/4 and the ED50 [2] was 0.3 µg/kg. The “a/b (Number of animals which vomited/number of animals used)” value ([3]; 0.03 mg/kg i.v.) was 2/2, the Vomiting frequency ([3]; 0.03 mg/kg i.v.) was 6.5 times and the Latency to vomiting ([3]; 0.03 mg/kg i.v.) was 192.0 min.

With `Cn1c(-c2ccccc2)c(C(=O)N[C@@H]2CN3CCC2CC3)c2ccccc21` [Example 3, (S)-(-)-N(1-Azabicyclo[2,2,2]octo-3-yl)-2-phenyl-1-methylindole-3-carboxamide hydrochloride] the “Number of dead animals/number of animals used” value ([1]; 30 mg/kg intraperitoneal) was 0/4, the “Number of dead animals/number of animals used” value ([1]; 50 mg/kg intraperitoneal) was 0/4 and the “a/b (Number of animals which vomited/number of animals used)” value ([3]; 0.03 mg/kg i.v.) was 2/2. It also gave a Vomiting frequency ([3]; 0.03 mg/kg i.v.) of 1.0 times and a Latency to vomiting ([3]; 0.03 mg/kg i.v.) of 215.0 min.

With `COc1ccc(-c2c(C(=O)NC3CN4CCC3CC4)c3ccccc3n2C)cc1` (stereo not shown) [Example 4, N-(1-Azabicyclo[2,2,21octo-3-yl)-2-(4-methoxyphenyl)-1-methylindole-3-carboxamide hydrochloride] the “Number of dead animals/number of animals used” value ([1]; 30 mg/kg intraperitoneal) was 0/4 and the “Number of dead animals/number of animals used” value ([1]; 50 mg/kg intraperitoneal) was 0/4.

For `Cn1c(-c2ccc(Cl)cc2)c(C(=O)NC2CN3CCC2CC3)c2ccccc21` (stereo not shown) [Example 6, N-(1-Azabicyclo[2,2,2]octo-3-yl)-2-(4-chlorophenyl)-1-methylindole-3-carboxamide hydrochloride], the “Number of dead animals/number of animals used” value ([1]; 50 mg/kg intraperitoneal) was 0/4.

For `Cn1c(-c2ccc(Cl)cc2)c(C(=O)N[C@@H]2CN3CCC2CC3)c2ccccc21` [Example 7, (S)-(-)-N-(1-Azabicyclo[2,2,2]octo-3-yl)-2-(4-chlorophenyl)-1-methylindole-3-carboxamide hydrochloride], the “Number of dead animals/number of animals used” value ([1]; 50 mg/kg intraperitoneal) was 0/4, the ED50 [2] was 0.28 µg/kg and the “a/b (Number of animals which vomited/number of animals used)” value ([3]; 0.03 mg/kg i.v.) was 4/4. For the same compound, the Vomiting frequency ([3]; 0.03 mg/kg i.v.) was 2.3 ± 0.6 times and the Latency to vomiting ([3]; 0.03 mg/kg i.v.) was 206.8 ± 15.7 min.

Work on `COc1ccccc1-c1c(C(=O)NC2CN3CCC2CC3)c2ccccc2n1C` (stereo not shown) [Example 8, N-(1-Azabicylo[2,2,2]octo-3-yl)-2-(2-methoxyphenyl)-1-methylindole-3-carboxamide hydrochloride] yielded an ED50 [2] of 0.18 µg/kg.

In the case of `Cn1c(-c2ccccc2Cl)c(C(=O)NC2CN3CCC2CC3)c2ccccc21` (stereo not shown) [Example 10, N-(1-Azabicyclo[2,2,2]octo-3-yl)-2-(2-chlorophenyl)-1-methylindole-3-carboxamide hydrochloride], the ED50 [2] is reported as 0.25 µg/kg.

For `COc1ccccc1-c1c(C(=O)N[C@@H]2CN3CCC2CC3)c2ccccc2n1C` [Example 11, (S)-(-)-N-(1-Azabicyclo[2,2,2]octo-3-yl)-2-(2-methoxyphenyl)-1-methylindole-3carboxamide hydrochloride], the “Latency (to step-through)” value [4, 7] was 214.1 ± 43.8 s, the “Latency (to step-through)” value [4, 8] was 246.5 ± 35.7 s and the “Latency (to step-through)” value [4, 9] was 246.7 ± 35.6 s. For the same compound, the “Latency (to step-through)” value [4, 10] was 162.0 ± 46.1 s, the IC50 [5] was 4600 nM and the ED50 [2] was 0.14 µg/kg. The “a/b (Number of animals which vomited/number of animals used)” value ([3]; 0.01 mg/kg i.v.) was 4/4, the Vomiting frequency ([3]; 0.01 mg/kg i.v.) was 6.8 ± 1.9 times and the Latency to vomiting ([3]; 0.01 mg/kg i.v.) was 149.5 ± 5.4 min.

With `Cn1c(-c2ccccc2Cl)c(C(=O)N[C@@H]2CN3CCC2CC3)c2ccccc21` [Example 12, (S)-(31)-N-(1-Azabicyclo[2,2,2]octo-3-yl)-2-(2-chlorophenyl)-1-methylindole-3-carboxamide hydrochloride] the “Latency (to step-through)” value ([4]; intraperitoneal, 0.1 μg/kg, control 103.8 ± 43.1) was 170.5 ± 43.3 s, the “Latency (to step-through)” value ([4]; intraperitoneal, 0.3 μg/kg, control 103.8 ± 43.1) was 183.0 ± 39.6 s and the “Latency (to step-through)” value ([4]; intraperitoneal, 1 μg/kg, control 103.8 ± 43.1) was 270.7 ± 29.3 s. The “Latency (to step-through)” value ([4]; intraperitoneal, 3 μg/kg, control 103.8 ± 43.1) was 256.3 ± 30.4 s, the “Latency (to step-through)” value ([4]; intraperitoneal, 10 μg/kg, control 103.8 ± 43.1) was 163.8 ± 45.6 s and the “Latency (to step-through)” value ([4]; intraperitoneal, 30 μg/kg, control 103.8 ± 43.1) was 127.8 ± 46.9 s. The “Latency (to step-through)” value [4, 7] was 108.5 ± 42.0 s, the “Latency (to step-through)” value [4, 8] was 246.3 ± 35.8 s and the “Latency (to step-through)” value [4, 9] was 247.3 ± 35.2 s. For the same compound, the “Latency (to step-through)” value [4, 10] was 105.5 ± 42.6 s, the “Latency (to step-through)” value ([4]; oral, 3 μg/kg, control 111.9 ± 41.4) was 139.2 ± 44.0 s and the IC50 [5] was 1200 nM. For the same compound, the ED50 [2] was 0.2 µg/kg, the “a/b (Number of animals which vomited/number of animals used)” value ([3]; 0.001 mg/kg i.v.) was 4/4 and the Vomiting frequency ([3]; 0.001 mg/kg i.v.) was 7.0 ± 1.7 times. For the same compound, the Latency to vomiting ([3]; 0.001 mg/kg i.v.) was 140.5 ± 13.6 min, the “a/b (Number of animals which vomited/number of animals used)” value ([3]; 0.01 mg/kg i.v.) was 4/4 and the Vomiting frequency ([3]; 0.01 mg/kg i.v.) was 3.8 ± 0.5 times. The Latency to vomiting ([3]; 0.01 mg/kg i.v.) was 173.8 ± 25.3 min.

In the case of `Cc1nccn1CC1CCc2c(c3ccccc3n2C)C1=O` (stereo not shown) [GR-38032F, ondansetron], the “anxiolytic and antipsychotic actions (in words)” value [6] is listed as “exhibit excellent anxiolytic and antipsychotic actions” and the “effect on emesis associated with anticancer drugs (in words)” value [6] is listed as “markedly inhibit the emesis associated with the administration of anticancer drugs”.

In the case of `CN1C2CCC1CC(OC(=O)c1c[nH]c3ccccc13)C2` (stereo not shown) [ICS-205-930, reference compound], the ED50 [2] is reported as 1.79 µg/kg, the “a/b (Number of animals which vomited/number of animals used)” value ([3]; 0.03 mg/kg i.v.) is reported as 4/4 and the Vomiting frequency ([3]; 0.03 mg/kg i.v.) is reported as 9.5 ± 1.3 times. It also gave a Latency to vomiting ([3]; 0.03 mg/kg i.v.) of 139.8 ± 13.2 min.
